Measurements: patent publication US8551718B2 (Suven Life Science Limited, priority 2009, dated 2013)
Read-outs that look alike come from different tables or passages of the source.

What was measured:
[1] = biological target: T1, 5-HT2A receptor (Homo sapiens, UniProt P28223); assay: Radioligand (SPA) competition binding assay, [3H]Ketanserin; conditions: for Binding to 5-HT2A receptor (in words): radioligand binding assay using SPA beads
[2] = biological target: T1, 5-HT2A receptor; assay: CRE-Luc reporter gene functional assay in CHO-5HT2A cells; type: cell-based; design: expressed in transfected cells; host or cells: CHO cells (CHO-5HT2A), co-transfected with CRE-Luc reporter; conditions: for Antagonism of serotonin induced luciferase activity (in words): compound 10 μM with 10 μM serotonin; for Dose response induction of luciferase activity (in words): up to the highest dose tested
[3] = biological target: T2, histamine H1 receptor (Homo sapiens, UniProt P35367); conditions: radioligand binding assay using SPA beads
[4] = biological target: T3, adrenergic alpha1b receptor (Homo sapiens, UniProt P35368); assay: Radioligand (SPA) competition binding assay, [3H]Prazosin; conditions: for Binding to alpha1b receptor (in words): radioligand binding assay using SPA beads
T3 sequence (P35368 1-520): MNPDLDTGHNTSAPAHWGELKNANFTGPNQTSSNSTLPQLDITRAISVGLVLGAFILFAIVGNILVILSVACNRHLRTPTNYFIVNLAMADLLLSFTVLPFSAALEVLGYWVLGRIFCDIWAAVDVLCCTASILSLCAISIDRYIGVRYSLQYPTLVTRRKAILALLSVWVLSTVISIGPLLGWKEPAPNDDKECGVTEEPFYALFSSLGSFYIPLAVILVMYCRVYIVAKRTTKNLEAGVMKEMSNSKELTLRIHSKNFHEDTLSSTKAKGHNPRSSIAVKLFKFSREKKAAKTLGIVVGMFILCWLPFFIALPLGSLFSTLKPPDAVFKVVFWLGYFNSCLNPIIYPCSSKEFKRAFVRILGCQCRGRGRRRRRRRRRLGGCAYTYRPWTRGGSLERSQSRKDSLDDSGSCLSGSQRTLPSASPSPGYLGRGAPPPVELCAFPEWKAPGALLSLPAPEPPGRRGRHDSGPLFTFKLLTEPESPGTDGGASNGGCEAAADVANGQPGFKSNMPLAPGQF

[5] = biological target: T2, histamine H1 receptor; conditions: for Blockade of histamine induced luciferase activity (in words): CHO-H1 cells, compound 10 μM with 10 μM histamine
[6] = biological target: T3, adrenergic alpha1b receptor; assay: CRE-Luc reporter gene functional assay in CHO-α1b cells; type: cell-based; design: expressed in transfected cells; host or cells: CHO cells (CHO-α1b), co-transfected with CRE-Luc reporter; conditions: for Blockade of epinephrine induced luciferase activity (in words): compound 10 μM with 10 μM epinephrine; for EC50: agonist mode, luciferase activity
[7] = biological target: T2, histamine H1 receptor; assay: cell-based
[8] = biological target: T2, histamine H1 receptor; assay: biochemical
[9] = biological target: T4, human adrenergic alpha1b receptor (Mesocricetus auratus, UniProt P18841); conditions: CHO cells expressing human adrenergic alpha1b receptor, literature; cited from earlier work
T4 sequence (P18841 1-515): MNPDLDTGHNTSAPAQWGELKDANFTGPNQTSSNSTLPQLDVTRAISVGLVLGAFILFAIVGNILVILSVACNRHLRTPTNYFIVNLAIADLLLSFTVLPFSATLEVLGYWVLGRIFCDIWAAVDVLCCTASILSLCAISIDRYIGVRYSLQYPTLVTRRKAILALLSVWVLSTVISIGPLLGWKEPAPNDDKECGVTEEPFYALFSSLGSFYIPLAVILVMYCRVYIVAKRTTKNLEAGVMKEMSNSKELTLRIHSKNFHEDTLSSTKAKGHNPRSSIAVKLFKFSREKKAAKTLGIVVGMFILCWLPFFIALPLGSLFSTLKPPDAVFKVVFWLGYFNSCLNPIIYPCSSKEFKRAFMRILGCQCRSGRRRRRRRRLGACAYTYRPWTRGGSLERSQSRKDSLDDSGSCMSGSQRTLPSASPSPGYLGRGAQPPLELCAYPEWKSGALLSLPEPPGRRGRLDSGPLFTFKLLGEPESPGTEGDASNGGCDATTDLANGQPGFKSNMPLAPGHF

T2 sequence (P35367 whole entry): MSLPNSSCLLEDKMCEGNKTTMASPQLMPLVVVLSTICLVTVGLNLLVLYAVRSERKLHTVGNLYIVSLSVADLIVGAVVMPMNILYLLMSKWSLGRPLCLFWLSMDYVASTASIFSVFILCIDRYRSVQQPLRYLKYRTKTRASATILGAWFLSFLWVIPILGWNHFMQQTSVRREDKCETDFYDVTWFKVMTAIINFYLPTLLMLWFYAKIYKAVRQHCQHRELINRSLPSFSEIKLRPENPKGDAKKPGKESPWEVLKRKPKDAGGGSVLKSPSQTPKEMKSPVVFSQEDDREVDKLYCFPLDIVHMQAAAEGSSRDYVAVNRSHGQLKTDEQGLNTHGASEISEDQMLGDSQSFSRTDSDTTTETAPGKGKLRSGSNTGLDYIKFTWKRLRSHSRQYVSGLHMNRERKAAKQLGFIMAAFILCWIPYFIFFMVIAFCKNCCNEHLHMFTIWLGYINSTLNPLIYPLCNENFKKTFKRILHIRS
T1 sequence (P28223 whole entry): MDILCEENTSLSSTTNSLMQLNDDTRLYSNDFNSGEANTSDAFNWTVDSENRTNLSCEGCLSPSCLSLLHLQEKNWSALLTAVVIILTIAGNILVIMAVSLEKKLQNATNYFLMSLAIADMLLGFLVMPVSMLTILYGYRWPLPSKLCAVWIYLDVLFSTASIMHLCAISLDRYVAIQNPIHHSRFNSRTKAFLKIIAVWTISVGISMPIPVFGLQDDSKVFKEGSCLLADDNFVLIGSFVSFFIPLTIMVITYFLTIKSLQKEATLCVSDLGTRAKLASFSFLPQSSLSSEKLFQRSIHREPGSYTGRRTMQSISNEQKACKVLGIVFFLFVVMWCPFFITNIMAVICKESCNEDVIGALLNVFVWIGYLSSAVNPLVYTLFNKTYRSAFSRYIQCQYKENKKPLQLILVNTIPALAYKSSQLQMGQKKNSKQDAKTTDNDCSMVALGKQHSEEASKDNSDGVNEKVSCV

Row | Compound | Binding to 5-HT2A receptor (in words) [1] | Antagonism of serotonin induced luciferase activity (in words) [2] | Binding to H1 receptor (in words) [3] | Ki [4] | IC50 [6] | Kb [6] | Blockade of epinephrine induced luciferase activity (in words) ([6]; CHO-α1b cells) | Binding to alpha1b receptor (in words) [4] | EC50 ([6]; CHO-α1b cells, 0.1 to 10000 nM) | Dose response induction of luciferase activity (in words) [2] | other results
1 | O=C(O)COCCN1CCN(C(c2ccccc2)c2ccc(Cl)cc2)CC1 (centres unmarked) [Cetirizine] | no affinity | did not show any impact | no affinity | > 10 µM | > 10 µM | > 10 µM | did not show any effect |  |  |  | Antagonism of serotonin induced luciferase activity, dose response study (in words) ([2]; compound 0.1 to 10,000 nM with 10 μM serotonin): none or partial antagonism; Blockade of histamine induced luciferase activity (in words) [5]: inverse agonist property; Blockade of histamine induced luciferase activity (in words) ([5]; listed as cetirizine): completely blocked; Antagonism of epinephrine induced luciferase activity, dose response study (in words) ([6]; CHO-α1b cells): did not show any antagonism
2 | CN(C)CCCN1c2ccccc2Sc2ccc(Cl)cc21 [Chlorpromazine] |  |  |  |  |  | 0.000501 µM | completely blocked |  |  |  | 
3 | NCCc1c[nH]cn1 [Histamine] | did not show any binding |  |  | > 10 µM |  |  |  | did not show any binding | > 10 µM | did not show the induction of luciferase activity | Ki [1]: > 10 µM; EC50 ([2]; agonist mode, luciferase activity, 0.1 nM to 10,000 nM): > 10 µM; Dose response induction of luciferase activity (in words) [5]: dose proportionate increase in luciferase activity; Dose response induction of luciferase activity (in words) ([6]; CHO-α1b cells, 0.1 to 10000 nM): did not respond
4 | NC[C@H](O)c1ccc(O)c(O)c1 [norepinephrine] |  |  |  |  |  |  |  |  |  |  | pEC50 for cAMP accumulation [9]: 6.6

Now from value to compound, other results behind:

Row | Binding to 5-HT2A receptor (in words) [1] | Antagonism of serotonin induced luciferase activity (in words) [2] | Binding to H1 receptor (in words) [3] | Ki [4] | IC50 [6] | Kb [6] | Blockade of epinephrine induced luciferase activity (in words) ([6]; CHO-α1b cells) | Binding to alpha1b receptor (in words) [4] | EC50 ([6]; CHO-α1b cells, 0.1 to 10000 nM) | Compound | Dose response induction of luciferase activity (in words) [2] | other results
5 |  | fully antagonized |  | […] | […] | […] | […] |  |  | O=C(c1ccc(F)cc1)C1CCN(CCn2c(=O)[nH]c3ccccc3c2=O)CC1 [Ketanserin] |  | 
6 |  |  | did not show any binding | > 10 µM |  |  |  | did not show any binding | > 10 µM | NCCc1c[nH]c2ccc(O)cc12 [Serotonin] | specific dose response effect | EC50 [7]: > 10 µM; Ki [8]: > 10 µM
